The values below are quoted from earlier work in patent US20100167988A1, “ETHOXYPHENYLMETHYL INHIBITORS OF SGLT2” (AUSPEX PHARMACEUTICALS, INC., priority 2008, published 2010).

Structures are written as SMILES.

For this series, the system named is multiple CYP enzymes, including CYP1A1, CYP1A2, CYP2A6, CYP2C9, CYP2D6, and CYP3A4. The note with it: recombinant CYP isoforms, in vitro.

With `CCOc1ccc(Cc2cc([C@@H]3O[C@H](CO)[C@@H](O)[C@H](O)[C@H]3O)ccc2Cl)cc1` [Dapagliflozin, (2S,3R,4R,5S,6R)-2-(3-(4-ethoxybenzyl)-4-chlorophenyl)-6-(hydroxymethyl)-tetrahydro-2H-pyran-3,4,5-triol], the turnover entry is listed as “low”.
